Assay results from paper PMC2663005 (Bioorganic & medicinal chemistry, 2009).

Columns and labels:
[1] = target: T1, S. aureus SrtAΔN24 (Staphylococcus aureus, UniProt Q2FV99); assay: biochemical; type: biochemical; details: for Hill Coefficient: fit of fractional activity vs inhibitor concentration
[2] = target: T1, S. aureus SrtAΔN24; assay: HPLC-based SrtA activity assay at fixed inhibitor concentrations; type: biochemical; details: read-out: percent inhibition (%I)
[3] = target: SrtA Cys184 (Staphylococcus aureus, UniProt Q2FV99); assay: ESI-MS and MS/MS of trypsin-digested inhibitor-treated SrtA; type: binding; details: SrtA incubated with compound, SDS-PAGE, trypsin digest

| Compound | Hill Coefficient [1] | other results |
| --- | --- | --- |
| C=CS(=O)(=O)[C@H]1C[C@@](CCC(=O)OC)(C(=O)OC)N[C@H]1c1ccc(OC)c(OC)c1 (relative stereo) [Compound 2k, Methyl (2S*,4S*,5S*)-5-(3,4-dimethoxyphenyl)-4-ethenesulfonyl-2-(2-methoxycarbonylethyl)pyrrolidine-2-carboxylate] |  | IC50 [1]: > 5 mM |
| C=CS(=O)(=O)[C@H]1C[C@@](CCC(=O)OC)(C(=O)OC)N[C@H]1c1cccnc1 (relative stereo) [Compound 2l, Methyl (2S*,4S*,5S*)-4-ethenesulfonyl-2-(2-methoxycarbonylethyl)-5-pyridin-3-yl-pyrrolidine-2-carboxylate] | 1.40 ± 0.33 |  |
| C=CS(=O)(=O)[C@H]1C[C@]2(C(=O)OC)CCC(=O)N2[C@H]1c1ccccc1 (relative stereo) [Compound 3j, Methyl (2S*,3S*,7aS*)-2-ethenesulfonyl-5-oxo-3-phenyltetrahydropyrrolizine-7a-carboxylate] | 1.90 ± 0.23 |  |
| C=CS(=O)(=O)[C@H]1C[C@]2(C(=O)OC)CCC(=O)N2[C@H]1c1ccc(OC)c(OC)c1 (relative stereo) [Compound 3k, Methyl (2S*,3S*,7aS*)-3-(3,4-dimethoxyphenyl)-2-ethenesulfonyl-5-oxotetrahydropyrrolizine-7a-carboxylate] | 1.39 ± 0.28 |  |
| C=CS(=O)(=O)[C@H]1C[C@]2(C(=O)OC)CCC(=O)N2[C@H]1c1cccnc1 (relative stereo) [Compound 3l, Methyl (2S*,3S*,7aS*)-2-ethenesulfonyl-5-oxo-3-pyridin-3-yl-tetrahydropyrrolizine-7a-carboxylate] | 1.42 ± 0.14 |  |
| Cc1cn(C[C@@H]2C[C@H](C#N)[C@H](c3ccccc3)N2C)c(=O)[nH]c1=O (relative stereo) [Compound 9, (2R*,3S*,5S*)-1-Methyl-5-(5-methyl-2,4-dioxo-3,4-dihydro-2H-pyrimidin-1-ylmethyl)-2-phenylpyrrolidine-3-carbonitrile] |  | inhibition at 1000 µM [2]: 6% |
| C=CS(=O)(=O)C1CC(C(=O)OC)NC1c1cccc(F)c1 (stereo not shown) [Compound 2c] |  | covalent modification of SrtA [3]: formation of a covalent adduct with Cys184 |
